Experimental data from article PMC8752837, “Structural basis of BAK activation in mitochondrial apoptosis initiation” (Nature Communications, 2022).
Numbered stars: 1 amine (or outer) side, 2 acyl side, 3 side chain; on linkers, the order of the positions; unused ones are H or OH. Bridge positions count the residues as written; N and C are the ends. Square brackets hold non-standard residues; d marks the D form. Peptide text beside a SMILES is read from it. I, II: the chains in the order shown. Actinocin(9to1) = Cc1c2oc3c(C)ccc(C(=O)[*:1])c3nc-2c(C(=O)[*:2])c(N)c1=O; NMeV = CN[C@H](C(=O)O)C(C)C; Sar = CNCC(=O)O

Test system: bak−/− bax−/− HCT116 cells
Experiment: Apoptosis initiated by actinomycin D and TRAIL + CHX in cells constitutively expressing BAK
Assay type: cell-based, human
Conditions: AUC of SYTOX Green +ve counts/confluence, 0-48 hr, n = 3
Description: We enriched for GFP positive cell populations by up to four rounds of sorting. Cells were used in apoptosis assays. […]
and doxycycline (Dox)-inducible mC-BAK. d, Representative i mmunoblot for BID and sypro red staining of BCL2allKO HCT116 cells expressing V74A and D83A mC-BAK and BID from n=2 independent experiments. e, Representative immunoblot of bak-/- bax- […]
from n=2 independent experiments . GFP positive cells were sorted three and four times to achieve similar expression levels. […]
human TRAIL and cycloheximide (CHX).
Data are presented as mean + SD for one representative of n=2 experiments each of n=3 technical replicates. g, Experimental […]
BAK (mC-BAK) monitored for 48 hr by IncuCyte imaging uptake of cell-impermeable dye SYTOX Green. AUC for kinetic traces is included. At 48 hr, we quantified percentage of SYTOX Green +ve cells (%) by fluorescence activated cell sorting (FACS). Data are presented as mean + SD from one of n=3 experiments each of n=3

SMILES: Cc1c2oc3c(C)ccc(C(=O)N[C@@H]4C(=O)N[C@H](C(C)C)C(=O)N5CCC[C@H]5C(=O)N(C)CC(=O)N(C)[C@@H](C(C)C)C(=O)O[C@@H]4C)c3nc-2c(C(=O)N[C@@H]2C(=O)N[C@H](C(C)C)C(=O)N3CCC[C@H]3C(=O)N(C)CC(=O)N(C)[C@@H](C(C)C)C(=O)O[C@@H]2C)c(N)c1=O [ActD] (I: T[dV]P[Sar][NMeV] / II: T[dV]P[Sar][NMeV]; ester I:1-I:C, II:1-II:C; linker I:N-II:N via Actinocin(9to1))
- AUC ActD (V74A 3x 15% + ActD 0.5): 753.275
- AUC ActD (V74A 3x 15% + ActD 2): 847.336
- AUC ActD (V74A 3x 15% + qVD + ActD 2): 104.738
- AUC ActD (V74A 4x 15% + ActD 0.5): 679.364
- AUC ActD (V74A 4x 15% + ActD 2): 932.591
- AUC ActD (V74A 4x 15% + qVD + ActD 0.5): 208.982
- AUC ActD (V74A 4x 15% + qVD + ActD 2): 91.8357
- AUC ActD (WT 4x 15% + ActD 0.5): 821.8
- AUC ActD (WT 4x 15% + ActD 2): 1113.4
- AUC ActD (WT 4x 15% + qVD + ActD 0.5): 162.981
- AUC ActD (WT 4x 15% + qVD + ActD 2): 59.6671
